The record followed here is patent publication EP0454058B1, “Use of anthraquinone derivatives in the prophylaxis and treatment of viral diseases” (LOMAPHARM Rudolf Lohmann GmbH KG Pharmazeutische Fabrik, priority 1990, dated 1991).

Type in all cases: cell-based
For series [1], the system named is Herpes simplex-Viren. Kind of series: Plaque inhibition test (Plaquehemmungstest, agar diffusion test). To be noted: read-out: Hemmhofdurchmesser (mm). An excerpt:
Der Plaquehemmungstest (Agardiffusionstest) wird nach der Methode von E. C. Herrmann et al., 1960 (6) durchgeführt. Auch bei diesem Test werden virusinfizierte tierische Zellkulturen verwendet. In diesem Fall wird in Petrischalen durch ein mit Hilfe von Agar verfestigtes Medium das unkontrollierte Ausbreiten der Viren verhindert. Es kommt zu einer lokal begrenzten Zerstörung der Zellen, die nach einer Färbung als Löcher im Zellrasen erkennbar ist. Die Testsubstanzen werden auf Filterpapierblättchen aufgetragen und auf das feste Medium aufgelegt. In einem Bereich um diese Blättchen werden durch die virustatische Wirkung der Testsubstanz die Zellen geschützt und es entstehen so kreisförmige Hemmzonen. Die Größe der Hemmzone kann als Maß für die virustatische Wirksamkeit ausgewertet werden.
Durchführung: Ein Monolayer von MK2-, HeLa-, Rita-Zellen oder einer anderen geeigneten Zellinie wird in einer Petrischale mit Viren infiziert, so daß eine große Zahl von einzelnen Plaques entsteht. Nach einer Bindung von 45 Minuten bei Zimmertemperatur wird der Zellrasen einmal mit phosphatgepufferter Kochsalzlösung gewaschen und mit einer Agar-Oberschicht versehen. Auf diese Agarschicht werden Filterpapierblättchen (10 mm Durchmesser) gelegt, die mit einer Lösung der Testsubstanz getränkt sind. Nach 48 bis 72 Stunden Bebrütung bei 37 °C in CO2-Atmosphäre (5 %) wird eine zweite Oberschicht darübergegeben, die den Vitalfarbstoff Tetrazoliumchlorid enthält. Nach weiteren 24 Stunden Bebrütung wird der Hemmhofdurchmesser, unterteilt in "toxische Zone" und "therapeutische Zone", in mm ausgemessen.

Series [2] has as its system Herpes simplex-Viren. Kind of series: Dye test (Farbtest, crystal violet): virustatic effect in virus-infected cell cultures. To be noted: for Extinktion bei 546 nm Hela-Zellen mit Herpes-Virus: virus control 0,144, cell control 0,648. An excerpt:
(§1) Der Farbtest, wie von Armstrong, 1971 (5) beschrieben, beruht darauf, daß die durch die Viren zerstörten Zellen nicht mehr gefärbt werden können. Je höher der Anteil an intakten Zellen nach der Inkubation mit dem jeweiligen Virus durch die virustatische Wirkung einer Substanz ist, um so mehr Farbstoff wird gebunden. Der Farbstoff läßt sich aus den gefärbten Zellen extrahieren und seine Menge kann in einem Photometer, z. B. bei Verwendung von Kristallviolett bei 546 nm, gemessen werden. Damit erlaubt der Test meßbare und reproduzierbare Angaben sowohl über die virustatische, wie auch durch Parallelversuche mit Zellkulturen ohne Viren über die cytotoxische Wirkung von Substanzen.
(§2) Durchführung: 10 mg der Testsubstanz wurden in 10 ml Ethylalkohol gelöst. Unter Verwendung des Mediums für die Zellkultur wurde eine Verdünnungsreihe mit Konzentrationen von 1,56 µg/ml bis 25 µg/ml Testsubstanz eingestellt. Diese Lösungen werden auf 24 Stunden alte MK2-, HeLa-, Rita-Zellen oder andere geeignete Zellen gegeben, nachdem diese vorher 45 Minuten zur Infektion mit einer Suspension von Viren überschichtet worden waren. Zur Prüfung der Cytotoxizität werden Parallelansätze ohne Viruszugabe analog mit den verschiedenen Verdünnungsstufen der Prüfsubstanz überschichtet. Die Versuchsansätze mit Virus und Testsubstanz bzw. nur der Testsubstanz werden 72 Stunden bei 37 °C bebrütet. Anschließend werden die Zellen fixiert und für 15 Minuten mit Kristallviolettlösung gefärbt. Nach Spülen mit Wasser wird der an die Zellen gebundene Farbstoff mit Ethanol extrahiert und in einem Photometer die Extinktion bei 546 nm (Absorption für Kristallviolett) gemessen.
Zur Auswertung werden die Extinktionen und auch die Konzentration mit einem Zellschutz von 50 % berechnet.
Falls die Testsubstanz keine wesentlichen cytotoxischen Eigenschaft besitzt, kann die antivirale Schutzwirkung nach nach folgender Formel in Prozent berechnet werden: (E3 - E2)/(E1 - E2)x 100 [formula] E1 = Extinktion der Zellkontrolle E2 = Extinktion der Viruskontrolle E3 = Extinktion der Versuchsansätze mit Virus und Alizarin

For the next series, the system named is Hela-Zellen. Kind of series: Dye test (Farbtest), parallel runs without virus: cytotoxicity. To be noted: for Extinktion bei 546 nm Hela-Zellen: cells without virus, 72 h.
Description: as §1, §2

For the next series, the system named is Cytomegalie-Viren. Put plainly: Plaque reduction test (Plaquereduktionstest) in human foreskin fibroblasts. To be noted: Fibroblast, plaque count versus virus control, read-out: Hemmung (%). An excerpt: Für die Prüfung der Wirksamkeit gegenüber Cytomegalie-Viren (CMV) werden mit diesen Viren infizierte menschliche Vorhautfibroblasten eingesetzt. Nach der Inkubation werden die entstandenen Plaques angefärbt und ausgezählt. Zur Auswertung wird die Plaquezahl unter dem Einfluß einer definierten Substanzmenge mit der Viruskontrolle verglichen.
Mit einer ähnlichen Versuchsanordnung wie im Plaquehemmungstest kann die Wirkung des Alizarins gegen Cytomegalie-Viren bestimmt werden (siehe Plaquereduktionstest, Methode 3). Die Untersuchung für das Cytomegalie-Virus in einer Zellinie von menschlichen Vorhautfibroblasten ergab die in Tabelle II angegebenen Werte für die Hemmung im Vergleich zur Viruskontrolle. Zur Auswertung wurden hier die gebildeten Plaques gezählt und im Vergleich zur Viruskontrolle ausgewertet (siehe Tabelle II). Tabelle II

Series [3] has as its system HHV 6 (Human herpes-Virus Typ 6). Put plainly: Virus replication in human lymphocyte cultures, passages in presence of substance. To be noted: 10 µg/ml, after three passages. An excerpt:
In weiteren Versuchen wurde die Wirkung von Alizarin auf die Vermehrung von HHV 6 (Human herpes-Virus Typ 6) untersucht. Diese Viren lassen sich aus dem Blut von immunsupprimierten Patienten mit Leukämie, Lymphomen oder Aids sowie von Kindern mit Roseola infantum isolieren.
Die Testung erfolgte in menschlichen Lymphocytenkulturen.

Setting [4] is: Substanzmenge 10 µg/ml pro Testblättchen, Rita-Zellen.
Where [5] appears, read: Substanzmenge 20 µg/ml pro Testblättchen, Rita-Zellen.
Where [6] appears, read: Substanzmenge 40 µg/ml pro Testblättchen, Rita-Zellen.

In brackets after ≈: the same amount, converted by molar mass. Where two headings read alike, the source gives them in different places.

As to `O=C1c2ccccc2C(=O)c2c(O)ccc(O)c21` [Chinizarin (3), 1,4-Dihydroxyanthrachinon], the zone of inhibition at 10 µg/mL in the series with Herpes simplex-Viren [1] (setting [4]) amounted to 11 mm. Further, the zone of inhibition at 20 µg/mL with Herpes simplex-Viren [1] (setting [5]) stood at 13 mm. In the series on Herpes simplex-Viren [1] (setting [6]), the zone of inhibition at 40 µg/mL came out at 16 mm.
The like results for `O=C1c2ccccc2C(=O)c2c1cc(S(=O)(=O)O)c(O)c2O` [Alizarinsulfonsäure (2), 9,10-Dihydro-3,4-dihydroxy-9,10-dioxo-2-anthracensulfonsäure.Mononatriumsalz] were, in that order, 10 mm, 12 mm and 19 mm.
The like results for `O=C1c2cccc(O)c2C(=O)c2c(O)cccc21` [Chrysazin (4), 1,8-Dihydroxyanthrachinon] were, in that order, 8 mm, 12 mm and 16 mm.
Regarding `O=C1c2ccccc2C(=O)c2c1ccc(O)c2O` [Alizarin, 1,2-Dihydroxy-9,10-anthracendion], the “Extinktion bei 546 nm Hela-Zellen mit Herpes-Virus” value in the series with Herpes simplex-Viren [2] (25 µg/ml, 72 h) is on record as 0,235; in the series on Herpes simplex-Viren [2] (3,125 µg/ml, 72 h) it was 0,329; in the series with Herpes simplex-Viren [2] (1,56 µg/ml, 72 h), 0,206; with Herpes simplex-Viren [2] (6,25 µg/ml, 72 h), 0,403; in the series with Herpes simplex-Viren [2] (12,5 µg/ml, 72 h), 0,338. The inhibition at 3.125 µg/mL in the series on Herpes simplex-Viren [2] (72 h, 3.125 µg/mL, Hela-Zellkulturen, read-out: Zellschutz (%)) was 37%. In addition, the inhibition at 25 µg/mL in the series with Herpes simplex-Viren [2] (72 h, 25 µg/ml, Hela-Zellkulturen, read-out: Zellschutz (%)) was 18%. In the series on Herpes simplex-Viren [2] (72 h, 1,56 µg/ml, Hela-Zellkulturen, read-out: Zellschutz (%)), the inhibition at 1.56 µg/mL came out at 12%. In addition, the inhibition at 6.25 µg/mL in the series on Herpes simplex-Viren [2] (72 h, 6,25 µg/ml, Hela-Zellkulturen, read-out: Zellschutz (%)) was 51%. In addition, the inhibition at 12.5 µg/mL with Herpes simplex-Viren [2] (72 h, 12,5 µg/ml, Hela-Zellkulturen, read-out: Zellschutz (%)) was found to be 38%. Moreover, the EC50 with Herpes simplex-Viren [2] (experiment of Tabelle I a, read-out: Konzentration, die einen Zellschutz von 50 % bewirkt) came to 5.96 µg/mL (≈ 24.8 µM). For the same compound, the IC50 with Herpes simplex-Viren [2] (in presence of 10 % Serum, read-out: 50 % Hemmwert) was 11.3 µg/mL; in the series with Herpes simplex-Viren [2] (mean of four experiments, read-out: Mittelwert für eine 50 %ige Hemmung der Virusvermehrung), 4.87 µg/mL (≈ 20.3 µM). In addition, the “Extinktion bei 546 nm Hela-Zellen” value with Hela-Zellen (25 µg/ml) was 0,328; in the series with Hela-Zellen (3,125 µg/ml), 0,693; in the series on Hela-Zellen (1,56 µg/ml) it was 0,655; in the series with Hela-Zellen (6,25 µg/ml), 0,634; in the series with Hela-Zellen (12,5 µg/ml), 0,510. In addition, the “cytotoxische Wirkung” value with Hela-Zellen (at the higher concentrations of Tabelle I a / I b) was “schwache cytotoxische Wirkung”. The inhibition at 5 µg/mL in the series on Cytomegalie-Viren (5 µg/ml) was 10%. Also, in the series on Cytomegalie-Viren (10 µg/ml), the inhibition at 10 µg/mL turned out to be 60%. For the same compound, the inhibition at 15 µg/mL with Cytomegalie-Viren (15 µg/ml) stood at 100%. Moreover, the inhibition at 20 µg/mL in the series with Cytomegalie-Viren (20 µg/ml) was found to be 100%. In addition, in series [3], the “Virus nachweisbar in den Zellen” value is recorded as “kein Virus mehr nachweisbar”. Also, the zone of inhibition at 10 µg/mL with Herpes simplex-Viren [1] amounted to 14 mm. Further, the zone of inhibition at 20 µg/mL in the series on Herpes simplex-Viren [1] stood at 18 mm. In addition, the zone of inhibition at 40 µg/mL in the series on Herpes simplex-Viren [1] was 20 mm.
Consider `O=C1c2ccc(O)cc2C(=O)c2ccc(O)cc21` [Anthraflavinsäure (5), 2,6-Dihydroxyanthrachinon], for which the zone of inhibition at 10 µg/mL in the series on Herpes simplex-Viren [1] (setting [4]) amounted to 9 mm. Also, in the series with Herpes simplex-Viren [1] (setting [5]), the zone of inhibition at 20 µg/mL amounted to 13 mm. Besides, the zone of inhibition at 40 µg/mL with Herpes simplex-Viren [1] (setting [6]) amounted to 15 mm.
